Source: DBAASP
In brackets after ≈: the same amount, converted by molar mass.

Tests used:
Experiment in all cases: ≥ marks a high value that may be exact or a test limit, other limits are often not marked, values filed in µg/mL are converted to µM
[1] = system: Staphylococcus aureus KCTC 3881
[2] = system: Escherichia coli KCTC 2571
[3] = system: Staphylococcus aureus KCTC 1916
[4] = system: Salmonella typhimurium KCTC 1926
[5] = system: Bacillus subtilis KCTC 1021
[6] = system: Bacillus subtilis KCTC 3068
[7] = system: Escherichia coli KCTC 1682
[8] = system: Staphylococcus epidermidis KCTC 1917
[9] = system: Pseudomonas aeruginosa KCTC 1637
[10] = system: Staphylococcus aureus KCTC 1621
[11] = system: Escherichia coli KCTC 2593
[12] = system: Pseudomonas aeruginosa KCTC 2513
[13] = system: Bacillus subtilis KCTC 1022
[14] = system: Pseudomonas aeruginosa KCTC 2004
[15] = system: Enterococcus faecalis 981
Candida glabrata 090902 = system: Candida glabrata 090902
[16] = system: Nocardia asteroides 201118
[17] = system: Psychrobacter faecalis X29
[18] = system: Staphylococcus aureus ATCC 25923
[19] = system: Micrococcus luteus ATCC 10240
Escherichia coli BL21AI = system: Escherichia coli BL21AI
[20] = system: Neisseria gonorrhoeae FA19
[21] = system: Neisseria gonorrhoeae F62
[22] = system: Pectobacterium carotovorum subsp. carotovorum DSM 30168
[23] = system: Clavibacter michiganensis subsp. michiganensis DSM 46294
[24] = system: Pseudomonas syringae pv. syringae DSM 10604
[25] = system: Pseudomonas syringae pv. tomato DC3000
Botrytis cinerea = system: Botrytis cinerea
[26] = system: Xanthomonas vesicatoria DSM 50861
Cladosporium herbarum = system: Cladosporium herbarum
[27] = system: Staphylococcus aureus 90857
[28] = system: Pseudomonas corrugata DSM 7228
Alternaria alternata = system: Alternaria alternata

With `CC[C@H](C)[C@H](NC(=O)CNC(=O)[C@H](CCCN=C(N)N)NC(=O)[C@H](Cc1c[nH]c2ccccc12)NC(=O)[C@@H](NC(=O)[C@H](Cc1cnc[nH]1)NC(=O)[C@H](Cc1cnc[nH]1)NC(=O)[C@H](Cc1ccccc1)NC(=O)[C@@H](N)Cc1ccccc1)[C@@H](C)CC)C(=O)N[C@H](C(=O)N[C@@H](Cc1cnc[nH]1)C(=O)N[C@H](C(=O)NCC(=O)N[C@@H](CCCCN)C(=O)N[C@H](C(=O)N[C@H](C(=O)N[C@@H](Cc1cnc[nH]1)C(=O)N[C@@H](CCCN=C(N)N)C(=O)N[C@@H](CC(C)C)C(=O)N[C@H](C(=O)N[C@H](C(=O)NCC(=O)O)[C@@H](C)O)C(C)C)[C@@H](C)CC)[C@@H](C)O)C(C)C)C(C)C` [FFHHIWRGIVHVGKTIHRLVTG] the MIC [1] was 2 µM (≈ 5.22 µg/mL), the MIC [2] was 2 µM (≈ 5.22 µg/mL) and the MIC [3] was 2 µM (≈ 5.22 µg/mL). For the same compound, the MIC [4] was 4 µM (≈ 10.4 µg/mL), the MIC [5] was 4 µM (≈ 10.4 µg/mL) and the MIC [6] was 4 µM (≈ 10.4 µg/mL). For the same compound, the MIC [7] was 2 µM (≈ 5.22 µg/mL), the MIC [8] was 2 µM (≈ 5.22 µg/mL) and the MIC [9] was 4 µM (≈ 10.4 µg/mL). The MIC [10] was 2 µM (≈ 5.22 µg/mL), the MIC [11] was 2 µM (≈ 5.22 µg/mL) and the MIC [12] was 4 µM (≈ 10.4 µg/mL). For the same compound, the MIC [13] was 4 µM (≈ 10.4 µg/mL) and the MIC [14] was 4 µM (≈ 10.4 µg/mL).

In the case of `CC[C@H](C)[C@H](NC(=O)[C@H](CC(C)C)NC(=O)CNC(=O)[C@@H]1CCCN1C(=O)[C@H](CC(C)C)NC(=O)[C@@H](N)Cc1ccccc1)C(=O)N[C@@H](CCCCN)C(=O)N[C@H](C(=O)N[C@@H](C)C(=O)N[C@H](C(=O)NCC(=O)N[C@H](C(=O)NCC(=O)N[C@@H](CO)C(=O)N[C@H](C(=O)N[C@H](C(=O)N[C@@H](CC(C)C)C(=O)N[C@H]1CSSC[C@@H](C(=O)O)NC(=O)[C@H](CCCCN)NC(=O)[C@H](CCCCN)NC(=O)[C@H]([C@@H](C)O)NC(=O)[C@H]([C@@H](C)CC)NC(=O)[C@H](CCCCN)NC1=O)[C@@H](C)CC)[C@@H](C)O)C(C)C)C(C)C)C(C)C` [FLPGLIKVAVGVGSTILCKITKKC], the MIC [15] is reported as 3.1 µM (≈ 7.71 µg/mL), the MIC (Candida glabrata 090902) is reported as 6.3 µM (≈ 15.7 µg/mL) and the MIC [16] is reported as 3.1 µM (≈ 7.71 µg/mL). The MIC [17] was ≥ 50 µM and the MIC [18] was 6.3 µM (≈ 15.7 µg/mL).

For `CC[C@H](C)[C@H](NC(=O)[C@H](CCCCN)NC(=O)[C@@H]1CCCN1C(=O)[C@H](CC(C)C)NC(=O)[C@H](CC(C)C)NC(=O)[C@@H](NC(=O)[C@H](CO)NC(=O)[C@H](CC(C)C)NC(=O)[C@H](C)NC(=O)CNC(=O)[C@H](Cc1ccccc1)NC(=O)[C@H](CC(C)C)NC(=O)[C@H](CC(C)C)NC(=O)[C@@H]1CCCN1C(=O)[C@H](CC(C)C)NC(=O)[C@@H](N)Cc1ccccc1)[C@@H](C)O)C(=O)N[C@@H](Cc1ccccc1)C(N)=O` [FLPLLFGALSTLLPKIF], the MIC [15] was ≥ 50 µM, the MIC [16] was 12.5 µM (≈ 23.6 µg/mL) and the MIC [18] was 25 µM (≈ 47.2 µg/mL).

`CC[C@H](C)[C@H](NC(=O)CNC(=O)[C@H](CCCN=C(N)N)NC(=O)[C@H](Cc1ccccc1)NC(=O)[C@@H](NC(=O)[C@H](Cc1cnc[nH]1)NC(=O)[C@H](Cc1cnc[nH]1)NC(=O)[C@H](Cc1c[nH]c2ccccc12)NC(=O)[C@@H](N)Cc1ccccc1)[C@@H](C)CC)C(=O)N[C@H](C(=O)N[C@@H](Cc1cnc[nH]1)C(=O)N[C@H](C(=O)NCC(=O)N[C@@H](CCCCN)C(=O)N[C@H](C(=O)N[C@H](C(=O)N[C@@H](Cc1cnc[nH]1)C(=O)N[C@@H](CCCN=C(N)N)C(=O)N[C@@H](CC(C)C)C(=O)N[C@H](C(=O)N[C@H](C(=O)NCC(=O)O)[C@@H](C)O)C(C)C)[C@@H](C)CC)[C@@H](C)O)C(C)C)C(C)C` [FWHHIFRGIVHVGKTIHRLVTG] was tested, and the MIC [1] was 2 µM (≈ 5.22 µg/mL), the MIC [2] was 2 µM (≈ 5.22 µg/mL) and the MIC [3] was 2 µM (≈ 5.22 µg/mL). For the same compound, the MIC [4] was 2 µM (≈ 5.22 µg/mL), the MIC [5] was 2 µM (≈ 5.22 µg/mL) and the MIC [6] was 2 µM (≈ 5.22 µg/mL). The MIC [7] was 2 µM (≈ 5.22 µg/mL), the MIC [8] was 2 µM (≈ 5.22 µg/mL) and the MIC [9] was 4 µM (≈ 10.4 µg/mL). The MIC [10] was 2 µM (≈ 5.22 µg/mL), the MIC [11] was 2 µM (≈ 5.22 µg/mL) and the MIC [12] was 4 µM (≈ 10.4 µg/mL). The MIC [13] was 2 µM (≈ 5.22 µg/mL) and the MIC [14] was 4 µM (≈ 10.4 µg/mL).

Compound `CC[C@H](C)[C@H](NC(=O)[C@H](Cc1ccc(O)cc1)NC(=O)[C@@H](NC(=O)[C@@H]1CCCN1C(=O)[C@H](CCCN=C(N)N)NC(=O)[C@H](CC(N)=O)NC(=O)[C@H](CC(N)=O)NC(=O)CN)C(C)C)C(=O)N1CCC[C@H]1C(=O)N[C@@H](CCCN=C(N)N)C(=O)N1CCC[C@H]1C(=O)N[C@@H](CCCN=C(N)N)C(=O)N1CCC[C@H]1C(=O)N1CCC[C@H]1C(=O)N[C@@H](Cc1cnc[nH]1)C(=O)N1CCC[C@H]1C(=O)N[C@@H](CCCN=C(N)N)C(=O)N[C@@H](CC(C)C)C(=O)N[C@H](C(=O)O)C(C)C` [GNNRPVYIPRPRPPHPRLV] has an MIC [19] of 0.107 µM (≈ 0.24 µg/mL) and an MIC (Escherichia coli BL21AI) of 3.49 µM (≈ 7.81 µg/mL).

With `CC(C)C[C@H](N)C(=O)N[C@H]1CSSC[C@@H](C(=O)N[C@H](C(N)=O)C(C)C)NC(=O)[C@H](C(C)C)NC(=O)[C@H](C)NC(=O)[C@H](Cc2ccccc2)NC(=O)[C@H](CCCN=C(N)N)NC(=O)[C@H](CCCN=C(N)N)NC(=O)[C@H](CCCN=C(N)N)NC(=O)[C@H](C)NC(=O)[C@H](Cc2ccc(O)cc2)NC1=O` [LCYARRRFAVCV] the MIC [20] was 7.65 µM (≈ 11.1 µg/mL) and the MIC [21] was 1.1 µM (≈ 1.6 µg/mL).

For `CC(C)C[C@H](NC(=O)[C@H](CCCNC(=N)N)NC(=O)CNC(=O)CNC(=O)[C@@H](N)CCCNC(=N)N)C(=O)N[C@@H](C)C(=O)N[C@@H](Cc1ccc(O)cc1)C(=O)N[C@@H](C)C(=O)N[C@@H](CCCNC(=N)N)C(=O)N[C@@H](CCCNC(=N)N)C(=O)N[C@@H](CCCNC(=N)N)C(=O)N[C@@H](Cc1ccccc1)C(=O)N[C@@H](C)C(=O)N[C@H](C(=O)N[C@@H](C)C(=O)N[C@H](C(=O)NCC(=O)N[C@@H](CCCNC(=N)N)C(N)=O)C(C)C)C(C)C` [RGGRLAYARRRFAVAVGR], the MIC [20] was ≥ 224 µM and the MIC [21] was 10 µM (≈ 20.3 µg/mL).

`CC(C)C[C@H](NC(=O)[C@H](CCCCN)NC(=O)[C@H](CC(C)C)NC(=O)[C@H](CCCN=C(N)N)NC(=O)[C@H](CCCCN)NC(=O)[C@H](CCCCN)NC(=O)[C@@H](N)CCCN=C(N)N)C(=O)N[C@@H](CC(C)C)C(=O)N[C@@H](CCCCN)C(=O)N[C@@H](CCCN=C(N)N)C(=O)N[C@@H](CC(C)C)C(=O)N[C@H](C(N)=O)C(C)C` [RKKRLKLLKRLV] was tested, and the MIC [22] was 25.8 µM (≈ 40 µg/mL), the MIC [23] was 0.645 µM (≈ 0.999 µg/mL) and the MIC [24] was 1.29 µM (≈ 2 µg/mL). For the same compound, the MIC [25] was 0.645 µM (≈ 0.999 µg/mL), the MIC (Botrytis cinerea) was ≥ 64.5 µM and the MIC [26] was 1.29 µM (≈ 2 µg/mL). It also gave an MIC (Cladosporium herbarum) of 6.45 µM (≈ 9.99 µg/mL), an MIC [27] of 25 µM (≈ 38.8 µg/mL) and an MIC [28] of 1.29 µM (≈ 2 µg/mL). For the same compound, the MIC (Alternaria alternata) was ≥ 64.5 µM.

`CC[C@H](C)[C@H](NC(=O)[C@H](CCCN=C(N)N)NC(=O)[C@H](CCCN=C(N)N)NC(=O)[C@@H]1CCCN1C(=O)[C@@H]1CCCN1C(=O)[C@H](CCCN=C(N)N)NC(=O)[C@@H]1CCCN1C(=O)[C@H](CCCN=C(N)N)NC(=O)[C@@H]1CCCN1C(=O)[C@H](CC(C)C)NC(=O)[C@H](Cc1ccc(O)cc1)NC(=O)[C@@H]1CCCN1C(=O)[C@@H]1CCCN1C(=O)[C@H](CCCCN)NC(=O)[C@H](CC(=O)O)NC(=O)[C@@H](N)C(C)C)C(=O)N[C@@H](Cc1ccc(O)cc1)C(=O)N[C@@H](CC(N)=O)C(=O)N[C@@H](CC(N)=O)C(N)=O` [VDKPPYLPRPRPPRRIYNN] showed an MIC [19] of 27.2 µM (≈ 64 µg/mL) and an MIC (Escherichia coli BL21AI) of 6.81 µM (≈ 16 µg/mL).
